Tests used:
[1] = system: MDCK cell wounds; test: lamellipodial density at the margin of MDCK cell wounds; type: cell-based, canine; details: for Lamellipodial Density: 50 μM, mean ± SEM, * p<0.05 vs control
Procedure: Lamellipodial protrusion is known to drive most forms of animal cell crawling. At any given time in the migrating cell sheet, some cells are extending lamellipodia at the margin while others are not. […] Therefore, inhibition of cell sheet migration by compound 1 at least in part is attributed to reduced formation of lamellipodia at the would margin.
Lamellipodial density at the margin of MDCK cell wounds was determined under the following treatment conditions: 0.1% DMSO (control, n=25 wounded monolayers), 50 μM compound 1 (n=19), or 50 μM compound 11 (n=10). Lamellipodial density is the number of lamellipodial protrusions detected at the wound margin until closure for the times indicated divided by margin perimeter length. Values are mean±SEM.
Wound closure assay and compound screening: MDCK cells were plated on multiwell tissue culture plates and cultured at 37° C. and 5% CO2 with medium changes every two days until confluent. When the cultures reached confluence, medium was changed again and all experimental treatments were begun a day later. Compounds were solubilized in dimethyl sulfoxide (DMSO) and added with fresh-medium to cell cultures at initial screening concentrations of 10 and 100 μM. Controls consisted of parallel wells to-which DMSO solvent carrier alone was added at the same concentration as that added with experimental treatments (not exceeding 0.1% (v/v)). DMSO alone at this concentration had no detectable effect on the cells. Monolayers were scraped 30 min later with a micropipette and ultramicro tips, allowing small wounds of consistent size to be generated. Progress of wound closure was examined at set time intervals following wounding by microscope, and inhibitory or acceleratory effects on wound closure relative to parallel controls noted. […] Digital images of the wounded monolayers were taken every 2 hours for 18 hours, and then at 30, 36, 54, 60, and 72 hours following wounding. The number of lamellipodia at the wound margin was also counted at these times.

[2] = system: Keller sandwich explants; test: convergent extension in Keller sandwich explants; design: species or system frog
From the text: It is hypothesized, but not relied upon herein, that the effects of compound 1 are mediated by an activity or activities after stage 9 during gastrulation and neurulation, and its effects on blastopore closure and anteroposterior elongation are consistent with inhibition of convergent extension. […] Therefore, compound 1 affects cell motility, cell polarity, and/or cell adhesion in the embryo.

[3] = system: MDCK cells; test: MDCK cell proliferation; type: cell-based, canine; details: 50 μM
Procedure: In FIG. 2A, cells were plated at low cell density (1×10^4 cells/mL) and allowed to attach and begin to grow for 48 hours prior to the start of experiment. The treatments were 0.1% DMSO (control, n=9 cultures), 50 μM compound 1 (n=8), or 50 μM compound 11 (n=7). Reported values are mean with SEM of the percent increase in cell number from 0 to 48 hours after addition of compound 1.
The values were mean with SEM of the percent increase in cell number another 48 hours after replacement of medium containing 50 μM compound 1 (n=8 cultures) or 0.1% DMSO (n=9) with fresh medium containing 0.1% DMSO.
MDCK cell proliferation: MDCK cells were plated on multiwell tissue culture plates at low density ([…]). Cells were allowed to attach and begin to grow for 48 hours before the start of the experiment. Fresh medium with or without compound was then added, and cells were incubated for 48 hours. At both 0 and 48 hours, some of the parallel wells for control and compound treatments were washed twice with PBS and treated with trypsin/EDTA solution to detach the cells. An equal volume of medium was added, cells were collected and counted using a hemacytometer. For reversibility, some of the parallel cultures for both control and compound treatments were grown another 48 hours after washing twice with PBS and replacing medium with fresh compound-free medium. At both the time of washing out and 48 hours later, some of the parallel wells for control and compound treatments were washed twice with PBS, detached from the plates with trypsin/EDTA solution, and the number of cells was counted.

## C/C=C/C(=O)N1C(=O)OC[C@@H]1Cc1ccccc1 [Compound 1, (4S)-3-((E)-2-butenoyl)-4-benzyl-2-oxazolidinone]
[1]; 2 hours
  Lamellipodial Density: 0.341 ± 0.119
[1]; 4 hours
  Lamellipodial Density: 0.573 ± 0.194*
[1]; 6 hours
  Lamellipodial Density: 0.563 ± 0.142*
[1]; 8 hours
  Lamellipodial Density: 0.938 ± 0.184*
[1]; 10 hours
  Lamellipodial Density: 0.803 ± 0.203
[1]; 12 hours
  Lamellipodial Density: 0.520 ± 0.124*
[1]; versus control
  cells extending lamellipodia at the margin: significantly fewer cells extending lamellipodia at the margin
[2]
  convergent extension: inhibits convergent extension
[3]; 0 to 48 hours
  inhibition of MDCK cell proliferation (percent increase in cell number): reversibly inhibited MDCK cell proliferation
[3]; another 48 hours after washing out
  reversibility of inhibition of cell proliferation: reversible
